In patent publication US20260365855A1, “TARGETED QUINOCYANINE DYES FOR THE INTRAOPERATIVE DELINEATION OF CANCER MARGINS” (THE TRUSTEES OF THE UNIVERSITY OF PENNSYLVANIA, priority 2022, published 2026):
“Also recorded” adds a separate entry of the source.

Assays:
[1] = tested on: KLN 205 cells; test: Cell uptake (NIR-II emission of cell lysates); assay type: cell-based; conditions: 10 μM, 2 h, 37 °C; lysed with 0.5% Triton X-100
Method: KLN 205 cells were seeded into an 8 chamber slide at 15,000 cells/well. Cells were incubated overnight at 37 °C and 5% CO2. Cells were then treated in 500 μL with 10 μM of compound 1, compound 2 or compound 3, or with vehicle (DMSO). The slide was incubated for 2 hours with treatment at 37 °C and 5% CO2.
Following treatment, the solution was aspirated, and cells were rinsed twice with 500 μL of ice-cold DPBS. Triton X-100 was diluted to be 0.5% Triton, and 500 μL of this solution were added to each chamber for 10 min at 37 °C and 5% CO2 to lyse the cells. 100 μL were removed from each chamber and added to a 96-well black-well clear-bottom plate. The plate was then imaged for NIR-II emission using the PhotonEtc IR Vivo with excitation at 760, 808, 890, or 940 nm.
Cell uptake of compound 1, compound 2 and compound 3 was evaluated by incubating KLN 205 cells in 10 μM of compound 1, compound 2 and compound 3, or with DMSO for 2 hrs. Following incubation, cells were rinsed twice with ice-cold DPBS before lysing by treatment with Triton. The lysates were then transferred to a 96-well black-well clear-bottom plate and imaged for NIR-II fluorescence in the IR Vivo, as shown in FIG. 4.

[2] = Absorbance spectra; assay type: physicochemical; conditions: 5 μM in DMSO
Method: Absorbance spectra. The absorbances for compound 1 and compound 2 were obtained using a PerkinElmer Lambda 5 measuring absorbances in 1 nm steps from 500 to 1100 nm. The absorbance spectrum for compound 3 was obtained using a JASCO VI 70 measuring in 1 nm steps from 850 to 1150 nm. All compounds were dissolved in DMSO at a concentration of 5 μM.
Synthesis of compound 1, compound 2 and compound 3 was verified by MALDI-TOF mass spectrometry with further confirmation by ^1H-NMR.

[3] = Emission spectra; assay type: physicochemical; conditions: for NIR-II fluorescence: absorbance and emission spectra, DMSO
Method: Emission spectra. The emissions for compounds 1, 2 and 3 were obtained using a Horiba QuantaMaster with excitation at 900 nm and emissions recorded in 1 nm steps from 925 to 1300 nm. […]
Compound 3 has a maximum absorbance at 942 nm and maximum emission at 979 nm. The emission intensities were determined with excitation at 900 nm.

[4] = NIR-II fluorescence of compound 1 vs. JAS239 and ICG (plate imaging, IR Vivo); assay type: physicochemical; conditions: for NIR-II emissions; excitation requirement: discussion of NIR-I fluorophores, require excitation with a NIR-I laser; for NIR-II emission: emission 1,000-1,250 nm, DMSO, no tissue
Method: NIR-II Fluorescence of Compound 1 vs. JAS239 and ICG.
Compound 1, JAS239, and ICG were dissolved in DMSO and added to a 96-well black-well clear-bottom plate at concentrations from 1 μM to 100 μM. The plate was then imaged using the PhotonEtc IR Vivo using the NIR-II emission filter (1000-1250 nm) with excitation at 760 nm, 808 nm, 890 nm, or 940 nm.
Dyes were excited with excitation lasers at 760, 808, 890, and 940 nm and emissions were measured between 1,000 and 1,250 nm.

[5] = NIR-II range; cited from earlier work
[6] = Depth penetration comparisons of compound 1 vs. JAS239 and ICG through chicken breast tissue
Method: Depth Penetration Comparisons of Compound 1 vs. JAS239 and ICG.
Compound 1, JAS239, and ICG were diluted in DMSO and placed in a 96-well black-well clear-bottom plate at concentrations from 0.1 μM to 100 μM. The plate was then imaged using the PhotonEtc IR Vivo using the NIR-II emission filter with excitation at 760, 808, 890, or 940 nm. Wells were then covered with thinly sliced raw chicken breast tissue from 1 mm to 3 mm thick. Imaging was then repeated for each tissue thickness.
Chicken breast tissue was layered over wells containing varying concentrations of each fluorophore in 1 mm sections. Fluorescence in the NIR-II window was measured following excitation at 760, 808, 890, and 940 nm. […] Tissue scattering, absorption, and autofluorescence decreases at increasing wavelengths of light. Thus, the improved resolution of compound 1 with increasing wavelength of excitation laser likely resulted from improved tissue penetration of the excitation laser. Compound 1 has a maximum absorption at 970 nm resulting in strong excitation of the probe and fluorescence conversion.

[7] = tested on: Athymic Nu/Nu mice; test: In vivo imaging after tail vein injection; conditions: 40 nmol via tail vein
Method: Athymic Nu/Nu mice were injected with 40 nmol compound 1 through the tail vein in Normal Saline and filtered through a 0.22 μm filter.

[8] = 5 μM in DMSO, excitation at 900 nm
[9] = excitation lasers 760 and 808 nm
[10] = excitation lasers 890 and 940 nm

maximum absorbance [2] | maximum emission [3, 8] | NIR-II fluorescence [3] | NIR-II emission [4, 9] | NIR-II emission [4, 10] | distribution in ventral image ([7]; 5 mins after injection) | distribution in ventral image ([7]; 2 hours after injection) | NIR-II emission compared to ICG ([4]; IR Vivo, excited near its absorbance maximum) | Compound | NIR-II fluorescence of cell lysates (cell uptake) [1] | absorbance maxima, shift compared to compound 3 [2] | emission maxima, shift compared to compound 3 [3, 8] | NIR-II emissions; excitation requirement [4] | NIR-II fluorescence (background statement) [5] | NIR-II emission intensity, no tissue present [6] | emission intensity (comparison of compounds 1, 2 and 3) [3, 8]
970 nm | 1007 nm | measurable NIR-II fluorescence |  |  |  |  |  | 4-((E)-2((E)-2-chloro-3-(2-((Z)-1-hydroxyethylquinolin-4(JH)-ylidene)-ethylidene)cyclohex-1-en-1-yl)vinyl)-1-hydroxyethylquinolin-1-ium chloride [compound 2] | measurable emissions; also recorded: measurable fluorescence in the NIR-II window | further shifted into the NIR-II window compared to compound 3 | further shifted into the NIR-II window compared to compound 3 |  |  |  | 
 |  |  | strongest NIR-II emissions | disappeared |  |  |  | CC1(C)C(/C=C/C=C/C=C/C=C2\N(CCCCS(=O)(=O)O)c3ccc4ccccc4c3C2(C)C)=[N+](CCCCS(=O)(=O)[O-])c2ccc3ccccc3c21 [ICG, indocyanine green] |  |  |  | measurable emissions in the NIR-II window | measurable fluorescence at even longer wavelengths of light in the near-infrared II (NIR-II) range | most intense emissions in the NIR-II window | 
 |  |  | strongest NIR-II emissions | disappeared |  |  |  | CC1(C)C(=C/C=C/C=C/C=C/C2=[N+](CCO)c3ccccc3C2(C)C)N(CCO)c2ccccc21 [JAS239] |  |  |  | measurable emissions in the NIR-II window |  |  | 
942 nm | 979 nm | measurable NIR-II fluorescence |  |  |  |  |  | OCCN1C=C/C(=C/C=C/C=C/C=C/c2cc[n+](CCO)c3ccccc23)c2ccccc21.[Cl-] [compound 3, l-(2-hydroxyethyl)-4-((JE,3E,5E)-7-((Z)-J-(2-hydroxyethyl)-quinoline-4(JH)-ylidene)hepta-1,3,5-trien-1-yl)quinoline-1-ium chloride] | no fluorescence was observed |  |  |  |  |  | 

Compound | maximum absorbance [2] | maximum emission [3, 8] | NIR-II fluorescence [3] | NIR-II emission [4, 9] | NIR-II emission [4, 10] | distribution in ventral image ([7]; 5 mins after injection) | distribution in ventral image ([7]; 2 hours after injection) | NIR-II emission compared to ICG ([4]; IR Vivo, excited near its absorbance maximum) | NIR-II fluorescence of cell lysates (cell uptake) [1] | absorbance maxima, shift compared to compound 3 [2] | emission maxima, shift compared to compound 3 [3, 8] | NIR-II emissions; excitation requirement [4] | NIR-II fluorescence (background statement) [5] | NIR-II emission intensity, no tissue present [6] | emission intensity (comparison of compounds 1, 2 and 3) [3, 8]
CCN1C=C/C(=C/C=C2\CCCC(/C=C/c3cc[n+](CC)c4ccccc34)=C2Cl)c2ccccc21.[I-] [compound 1, 4-((E)-2((E)-2-chloro-3-(2-((Z)-J-ethylquinolin-4(JH)-ylidene)-ethylidene)cyclohex-1-en-1-yl)vinyl)-J-ethylquinolin-1-ium iodide] | 970 nm | 1010 nm | measurable NIR-II fluorescence |  | strong NIR-II signal; also recorded: only compound 1 had measurable fluorescence in the NIR-II window | in the liver | in the throat, liver and intestines | comparable NIR-II emissions to ICG | measurable emissions; also recorded: measurable fluorescence in the NIR-II window | further shifted into the NIR-II window compared to compound 3 | further shifted into the NIR-II window compared to compound 3 |  |  |  | most intense emission; also recorded: highest fluorescence with an emission maximum in the NIR-II window
